For test [1], the target named is GST-CK1δ (Homo sapiens, UniProt P48730). In words: radiometric in vitro kinase reaction, GST-CK1δ, phosphate incorporation into α-casein.
Method: (§1) All in vitro kinase reactions were performed at 30 °C in a total volume of 15 µL containing 25 mM Tris-HCl (pH 7.0), 10 mM MgCl2, 100 µM EDTA and 0.4 pmol [γ-^32P]-ATP. […] GST- or 6×His-tagged CK1δ or CK1ε were used as enzymes in 7, 70 or 335 nM concentration. Additionally, a reaction without enzyme was performed and used to determine the background signal specifying the minimal usable enzyme concentration (signal to background ratio ≥10). Reactions were stopped by adding 3 µL of 5× SDS loading buffer and boiling at 95 °C for 5 min. Proteins were separated by SDS-PAGE and stained with Coomassie Brilliant Blue R250 (Waldeck GmbH & Co. KG, Muenster, Germany). Radioactively labelled proteins were visualized by autoradiography. For quantification, phosphorylated proteins were excised from dried gels and phosphate incorporation was measured via Cherenkov counting.
(§2) Raw data was used to calculate enzyme velocity (V) (phosphate transfer per min). V was plotted over ATP concentration and fitted to the Michaelis-Menten model using GraphPad Prism 7 (GraphPad Software, La Jolla, CA, USA). Km was calculated as the concentration of substrate needed to get half-maximal velocity. In order to determine IC50 values, raw data was transformed from initially measured cpm values to pmol of transferred phosphate. Subsequently data was transformed logarithmically (X = log(X)), normalized to DMSO (100%) and zero (0%) and finally fit to sigmoidal dose-response curves (variable slope) with nonlinear regression using GraphPad Prism 7.
Test [2] concerns the target 6×His-CK1δ (Homo sapiens, UniProt P48730). In words: radiometric in vitro kinase reaction, 6×His-CK1δ, phosphate incorporation into α-casein.
Method: as §1, §2
Test [3] deals with CK1δ of yeast origin. The following applies: Working Group B, ATP 100 µM; cited from earlier work.
Test [4] deals with CK1δ(1–294). Conditions: Working Group A, ATP 20 µM; cited from earlier work.
In test [5] the target is T1, 6×His-CK1ε (Homo sapiens, UniProt P49674).
T1 construct: made in house
In words: radiometric in vitro kinase reaction, 6×His-CK1ε, phosphate incorporation into α-casein. Type of test: biochemical.
Method: as §1
Raw data was used to calculate enzyme velocity (V) (phosphate transfer per min). V was plotted over ATP concentration and fitted to the Michaelis-Menten model using GraphPad Prism 7 (GraphPad Software, La Jolla, CA, USA). Km was calculated as the concentration of substrate needed to get half-maximal velocity. In order to determine IC50 values, raw data was transformed from initially measured cpm values to pmol of transferred phosphate. […]

Test [6] has as its system CK1εΔ319. Set-up: method as in PMID 17502429. Conditions: Working Group A, CK1εΔ319, ATP 5 µM; cited from earlier work.
For test [7], the system named is 6×His-CK1ε. Set-up: method as in PMID 19458106. Conditions: Working Group B, ATP 10 µM; cited from earlier work.
The subject of test [8] is untagged CK1δ. Also noted: method as in PMID 19458106. Conditions: CK1-specific peptide substrate, ATP 10 µM, luminescence-based, read-out: IC50 in Literature; cited from earlier work.
Test [9] relates to CK1δ. The following applies: Working Group A, ATP 10 µM; cited from earlier work.
Test [10] has as its system CK1δ. Also noted: method as in PMID 31817920. Conditions: ATP 10 µM, read-out: IC50 in Literature; cited from earlier work.

Like-named read-outs stand apart in the source and are kept apart here.

Sequence of GST-CK1δ (P48730 whole entry): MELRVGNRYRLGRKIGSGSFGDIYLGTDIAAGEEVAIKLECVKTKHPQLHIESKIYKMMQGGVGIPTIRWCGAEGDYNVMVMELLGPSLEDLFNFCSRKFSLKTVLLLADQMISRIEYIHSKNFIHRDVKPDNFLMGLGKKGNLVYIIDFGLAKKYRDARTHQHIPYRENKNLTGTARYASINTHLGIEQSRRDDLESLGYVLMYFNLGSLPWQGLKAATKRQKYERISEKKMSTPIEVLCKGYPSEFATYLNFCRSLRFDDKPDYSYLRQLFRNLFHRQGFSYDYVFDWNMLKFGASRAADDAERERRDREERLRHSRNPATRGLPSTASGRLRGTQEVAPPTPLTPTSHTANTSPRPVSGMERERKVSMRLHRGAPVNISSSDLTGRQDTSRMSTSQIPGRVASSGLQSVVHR
Sequence of 6×His-CK1δ (P48730 whole entry): as above
T1 sequence (P49674 whole entry): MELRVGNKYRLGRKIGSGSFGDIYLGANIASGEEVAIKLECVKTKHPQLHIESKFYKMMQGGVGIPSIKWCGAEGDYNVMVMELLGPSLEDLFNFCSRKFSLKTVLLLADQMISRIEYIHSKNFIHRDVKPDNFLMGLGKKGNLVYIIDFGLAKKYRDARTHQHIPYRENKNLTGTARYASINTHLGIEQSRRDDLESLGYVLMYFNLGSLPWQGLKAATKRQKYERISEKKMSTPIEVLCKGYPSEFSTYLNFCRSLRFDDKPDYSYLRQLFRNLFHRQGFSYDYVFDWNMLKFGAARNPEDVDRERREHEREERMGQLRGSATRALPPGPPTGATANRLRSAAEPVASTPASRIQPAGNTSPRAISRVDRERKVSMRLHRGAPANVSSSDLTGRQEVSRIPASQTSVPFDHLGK

What is called Km is the substrate concentration at which the rate is half of its maximum. For `Nc1ncnc2c1ncn2[C@@H]1O[C@H](COP(=O)(O)OP(=O)(O)OP(=O)(O)O)[C@@H](O)[C@H]1O` [ATP], the Km in test [1] (read-out: Km (ATP), GST-CK1δ 7 nM, 10 min, ATP 0.5 to 100 µM, Michaelis-Menten) worked out at 6 µM; in [2] (read-out: Km (ATP), 6×His-CK1δ 70 nM, 10 min, ATP 0.5 to 100 µM, Michaelis-Menten), 14 µM.

As usually defined, the IC50 is the concentration that inhibits the measured activity by half. Regarding `NC(=O)c1ccc(-c2nc(-c3ccc4c(c3)OCCO4)c(-c3ccccn3)[nH]2)cc1` [D4476], the IC50 was 0.2 µM in [3] and 0.3 µM in test [4].

The molecule `Nc1ncnc2c1c(COc1cccc(Cl)c1)nn2C1CCOCC1` [PF-4800567] came in with a half-inhibitory concentration (IC50) in [5] of 0.0723 µM. The molecule also registered a Ki in test [5] (6×His-CK1ε, Kic = IC50/2 (Cheng-Prusoff, ATP = Km)) of 0.0362 µM.

Take `Nc1nccc(-c2c(-c3ccc(F)cc3)ncn2C2CCCCC2)n1` [PF-670462]: the half-maximal inhibitory concentration (IC50) was 0.008 µM in test [6], 0.08 µM in test [7] and 0.013 µM in test [8].

As to `COc1cc(OC)c(C=C2C(O)=Nc3ccccc32)c(OC)c1` [IC261], the IC50 in [9] was 1 µM; in test [3], 2.5 µM.

As to `O=C(Nc1nc2ccc(C(F)(F)F)cc2s1)Sc1nccc(=O)n1Cc1ccc(OC(F)(F)F)cc1` [Liu-20], the IC50 is 0.086 µM in test [10]; 0.396 µM in test [1] (GST-CK1δ 7 nM, 10 min, ATP equal to Km (ATP) 6 µM, α-casein 10 µM, 30 °C); 0.404 µM in test [2] (6×His-CK1δ 70 nM, 10 min, ATP equal to Km (ATP) 14 µM, α-casein 10 µM, 30 °C). The Ki in [1] (read-out: Kic, GST-CK1δ, Kic = IC50/2 (Cheng-Prusoff, ATP = Km)) came to 0.198 µM; in [2] (read-out: Kic, 6×His-CK1δ, Kic = IC50/2 (Cheng-Prusoff, ATP = Km)), 0.202 µM.

The values are drawn from article PMC8401859 (Molecules, 2021).
